Assay results: patent US20120328696A1, “ANTI-PARKINSONIAN COMPOUND ACETYLSALICYLIC ACID MALTOL ESTER” (Hutecs Korea Pharmaceutical Co., Ltd., priority 2008, published 2012)

Columns and labels:
Type in all cases: in vivo
cleaved PKCδ = experiment: Striatal cleaved PKCδ expression after MA (western blot); details: MA 8 mg/kg i.p. x4, GPx-1 (+/+) and (−/−) mice; for effect on MA-induced striatal cleaved PKCδ expression: p.o., AME 25 or 50, EBS 10 or 20, rottlerin 10 or 20 mg/kg
Method: (§1) The mice received four times of MA (8 mg/kg, ip) or saline as a 2 hr-time interval. Chemicals (AME, EBS, and PKC inhibitors) were administrated for 5 consecutive days (twice daily), and were given 2 times at 4 hr and 30 min before the first MA injection as shown in the experimental schedule. Animals were sacrificed at 4 hrs and 3 days after the final MA administration.
Tissues were homogenized in lysis buffer, containing 200 mM Tris HCl (pH 6.8), 1% SDS, 5 mM EGTA (ethylene glycol tetraacetic acid), 5 mM EDTA (ethylenediaminetetraacetic acid), 10% glycerol, 1× phosphatase inhibitor cocktail I, 1× protease inhibitor cocktail. Lysate was centrifuged at 12,000×g for 30 min and supernatant fraction was used for Western blot analysis. […] And then, membranes were incubated with HRP-conjugated secondary anti-rabbit IgG (1:1000, GE healthcare, Piscataway, N.J., USA), anti-mouse IgG (1:1000, Sigma) or anti-goat IgG (1:1000, Sigma) for 2 h. Subsequent visualization was performed using enhanced chemiluminescence system (ECL Plus®, GE healthcare).

[1] = test system: tumor necrosis factor (TNF)-α; experiment: TNF-α expression after MA (western blot); details: p.o.; AME 50, EBS 20, rottlerin 20 mg/kg; MA 8 mg/kg i.p. x4; GPx-1 (+/+) and (−/−) mice
Method: as §1
The western blot assays was performed as described previously (Kim et al., 2003). Tissues were homogenized in lysis buffer, containing 200 mM Tris HCl (pH 6.8), 1% SDS, 5 mM EGTA (ethylene glycol tetraacetic acid), 5 mM EDTA (ethylenediaminetetraacetic acid), 10% glycerol, 1× phosphatase inhibitor cocktail I, 1× protease inhibitor cocktail. Lysate was centrifuged at 12,000×g for 30 min and supernatant fraction was used for Western blot analysis. Proteins (20-50 ug/lane) were separated by 6%, 8%, 10% or 15% sodium dodecyl sulfate-polyacrylamide gel electrophoresis and transferred onto the PVDF membranes. Following transfer, the membranes were preincubated with 5% non-fat milk and incubated overnight at 4° C. with primary antibody against β-actin (1:50000, Sigma, St. Louis, Mo., USA), TH (1:5000, Chemicon), TH phosphor-Ser 19 (1:1000, Chemicon,), TH phosphor-Ser 31 (1:500, Chemicon), TH phosphor-Ser 40 (1:500, Chemicon), F4/80 (1:500, Serotec), GPx1 (1:2500, AbFrontier), PKC (1:5000, Santa Cruz biotechnology, Santa Cruz, Calif., USA), p53 (1:5000, Cell signaling, Beverly, Mass., USA), MDM2 (1:1000, BD Pharmingen, San Jose, Calif., USA), MDM2 phospho-Ser 166 (1:1000, cell signaling), BDNF (1:500, Chemicon), GDNF (1:250, Santa Cruz), COX-2 (1:2000, Cayman, Ann Arbor, MC, USA), IL-6 (1:2000, Abcam, Cambridge, Mass., USA), TNF-a (1:1000, R&D Systems, Mckinley place NE, NM, USA), IFN-γ (1:500, Chemicon) or Iba-1 (1:500, Wako, Osaka, Japan). And then, membranes were incubated with HRP-conjugated secondary anti-rabbit IgG (1:1000, GE healthcare, Piscataway, N.J., USA), anti-mouse IgG (1:1000, Sigma) or anti-goat IgG (1:1000, Sigma) for 2 h. […]

MDA, 4-HNE = experiment: Striatal lipid peroxidation (MDA, 4-HNE) after MA; details: MDA and 4-HNE; striatum, 3 days after final MA; p.o.; AME 50, EBS 20, rottlerin 20 mg/kg; GPx-1 (+/+) and (−/−) mice
Method: as §1
The amount of lipid peroxidation was assessed by measuring the accumulation of thiobarbituric acid-reactive substance in homogenates of striatal tissue and is expressed as malondialdehyde (MDA) content (Kim et al., 1999, 2000b, 2002). In brief, 0.1 ml of the homogenate (or standard solutions prepared daily from 1,1,3,3-tetra-methoxypropane) and 0.75 ml of the working solution (thiobarbituric acid 0.37% and perchloric acid 6.4%, 2:1 v/v) were mixed and heated in a water bath to 95° C. for 1 h. After cooling (10 min in ice water bath), the flocculent precipitate was removed by centrifugation at 3200×g for 10 min. The supernatant was neutralized and filtered prior to injection on an ODS 5 μm column. Mobile phase consisted of 50 mM PBS (pH 6.0): methanol (58:42, v/v). Isocratic separation was performed with 1.0 ml/min flow rate and detection at 532 nm using a UV/VIS HPLC-Detector (Model 486, Waters Associates, Milford, Mass., USA). MDA values were expressed as nmole/mg protein.
4-hydroxy-2-nonenal (4HNE) is major product of the lipid peroxidation process (Benedetti et al., 1980). Determining of 4HNE was performed as slot blot analysis (Zhang et al., 2000). Briefly, following transfer, the PVDF membranes were preincubated with 5% non-fat milk and incubated overnight at 4° C. with anti-4HNE (1:2000, Calbiochem, San Diego, Calif., USA). After incubation with primary antibody, membranes were incubated with a HRP-conjugated secondary antibody. Subsequent visualization was performed using enhanced chemiluminescence system (ECL Plus®, GE healthcare).

[2] = test system: GPx-1 (+/+)- and GPx-1 (−/−)-mice; experiment: MA-induced hyperthermia (rectal temperature); details: MA 8 mg/kg i.p. x4
Method: as §1
Rectal temperature was measured in the MA- or saline-treated mice. Measurement was performed at constant daytime intervals starting at 9:00 A.M. to avoid the influence on circadian variations. Rectal temperature was measured by inserting a thermometer probe lubricated with oil at least 3 cm into the rectum of the mice. To prevent sudden movements occurring especially in MA-treated mice, animals were gently handled with a wool glove while their tail was moved to allow the probe insertion. This was done to prevent the effects of restrain stress on rectal temperature. When the attempt to insert probe was not successful (i.e., sudden movements of the animal or the need to restrain the mouse), the animal was excluded from the groups.

[3] = p.o., AME 25 or 50, EBS 10 or 20, rottlerin 10 or 20 mg/kg (p<0.01 at high dose), GPx-1 (+/+) and (−/−) mice

Q: What does the source list for `O=c1c2ccccc2[se]n1-c1ccccc1` [EBS, 2-phenyl-1,2-benzisoselenazol-3(2H)-one]?
A: effect on MA-induced striatal cleaved PKCδ expression (cleaved PKCδ): significantly reduced MA-induced the PKCδ- and cleaved PKCδ-expressions in a dose-related manner; effect on MA-induced increase in TNF-α expression [1]: significantly and consistently attenuating effects; effect on MA-induced increase in lipid peroxidation (MDA, 4-HNE): significantly attenuated; effect on MA-induced hyperthermia [2, 3]: attenuated hyperthermia induced by MA in a dose-related manner

Q: Which “effect on MA-induced increase in striatal cleaved PKCδ expression” value (cleaved PKCδ; intra-striatal) does the source give for `CC(=O)c1c(O)c(C)c(O)c(Cc2c(O)c3c(c(C(=O)/C=C/c4ccccc4)c2O)OC(C)(C)C=C3)c1O` [rottlerin] here?
A: The value was “attenuated the MA-induced increases in PKCδ expressions in a dose-dependent manner”.

Q: What about the “effect on MA-induced striatal cleaved PKCδ expression” value (cleaved PKCδ) of the same compound?
A: The value was “significantly reduced MA-induced the PKCδ- and cleaved PKCδ-expressions in a dose-related manner”.

Q: And the “effect on MA-induced increase in TNF-α expression” value [1]?
A: The value was “significantly and consistently attenuating effects”.

Q: And the “effect on MA-induced increase in lipid peroxidation” value (MDA, 4-HNE)?
A: Its value is “significantly attenuated”.

Q: What about the “effect on MA-induced hyperthermia” value ([2]; PKC inhibitors intra-striatal (doses of Table 1), GPx-1 (+/+) and GPx-1 (−/−) mice) of the same compound?
A: Its value is “significantly blocked MA-induced hyperthermia in a dose-dependent manner”.

Q: And the “effect on MA-induced hyperthermia” value [2, 3]?
A: Its value is “attenuated hyperthermia induced by MA in a dose-related manner”.

Q: What does the source list for `CC(=O)Oc1ccccc1C(=O)Oc1c(C)occc1=O` [AME, 3-(2-methyl-4-pyronyl)-2-acetyloxybenzoate]?
A: effect on MA-induced striatal cleaved PKCδ expression (cleaved PKCδ): significantly reduced MA-induced the PKCδ- and cleaved PKCδ-expressions in a dose-related manner; effect on MA-induced increase in TNF-α expression [1]: significantly and consistently attenuating effects; effect on MA-induced increase in lipid peroxidation (MDA, 4-HNE): significantly attenuated; effect on MA-induced hyperthermia [2, 3]: attenuated hyperthermia induced by MA in a dose-related manner
